From patent US20250221966A1, “RXFP1 AGONISTS” (BRISTOL-MYERS SQUIBB COMPANY, priority 2021, published 2025)

target: T1, human RXFP1 (Homo sapiens, UniProt Q9HBX9); experiment: RXFP1 cAMP assay (hRXFP1 HEK293 cAMP assay, HTRF); assay type: cell-based; conditions: HEK293 cells stably expressing human RXFP1, 30 min at room temperature, read-out: cAMP hRXFP1 HEK293 Assay EC50
T1 construct: expressed in transfected cells
T1 sequence (Q9HBX9 1-757): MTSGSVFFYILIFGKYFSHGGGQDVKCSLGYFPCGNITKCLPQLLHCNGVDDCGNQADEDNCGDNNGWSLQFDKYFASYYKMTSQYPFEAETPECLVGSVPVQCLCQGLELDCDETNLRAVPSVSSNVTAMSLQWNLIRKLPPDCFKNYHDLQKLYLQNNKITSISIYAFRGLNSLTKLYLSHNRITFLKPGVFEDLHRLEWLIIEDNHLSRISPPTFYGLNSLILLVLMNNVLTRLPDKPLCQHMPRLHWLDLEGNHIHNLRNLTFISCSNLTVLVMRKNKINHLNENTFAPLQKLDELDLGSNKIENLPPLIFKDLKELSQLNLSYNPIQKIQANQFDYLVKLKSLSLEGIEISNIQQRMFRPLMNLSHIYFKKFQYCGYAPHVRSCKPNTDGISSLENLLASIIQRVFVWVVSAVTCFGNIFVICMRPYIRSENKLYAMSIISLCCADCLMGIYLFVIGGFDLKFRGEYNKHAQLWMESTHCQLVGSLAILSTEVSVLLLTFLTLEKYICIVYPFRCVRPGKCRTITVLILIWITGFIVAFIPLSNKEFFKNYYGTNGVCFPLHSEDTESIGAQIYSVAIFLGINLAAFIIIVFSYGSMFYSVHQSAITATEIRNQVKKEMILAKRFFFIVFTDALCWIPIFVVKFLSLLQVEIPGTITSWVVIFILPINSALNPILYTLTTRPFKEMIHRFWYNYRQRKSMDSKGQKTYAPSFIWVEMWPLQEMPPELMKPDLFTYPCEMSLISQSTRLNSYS
Procedure: RXFP1 Cyclic Adenosine Monophosphate (cAMP) Assays. […] Cells were dissociated and suspended in assay buffer. The assay buffer was HBSS buffer (with calcium and magnesium) containing 20 mM HEPES, 0.05% BSA, and 0.5 mM IBMX. Cells (3000 cells per well, except 1500 cell per well for HEK293 cells stably expressing human RXFP1) were added to 384-well Proxiplates (Perkin-Elmer). Cells were immediately treated with test compounds in DMSO (2% final) at final concentrations in the range of 0.010 nM to 50 μM. Cells were incubated for 30 min at room temperature. The level of intracellular cAMP was determined using the HTRF HiRange cAMP assay reagent kit (Cisbio) according to manufacturer's instructions. Solutions of cryptate conjugated anti-cAMP and d2 fluorophore-labelled cAMP were made in a supplied lysis buffer separately. Upon completion of the reaction, the cells were lysed with equal volume of the d2-cAMP solution and anti-cAMP solution. […] The potency and activity of a compound to […] cAMP production was then determined by fitting to a 4-parametric logistic equation from a plot of cAMP level versus compound concentrations.

| EC50 [nM] | Compound |
| --- | --- |
| 4.5 | COc1ccc(-c2cnc3cc(CO)ccn23)cc1C(=O)N[C@@H]1C2CCC(/C2=C/C2CC2)[C@@H]1C(=O)Nc1ccc(F)c(C(F)(F)F)c1 (stereo partly drawn) [compound 974] |
| 6.9 | COc1ccc(-c2cc([C@H](OC(=O)NC3CCC3)C(F)(F)F)ccc2F)cc1C(=O)N[C@H]1[C@@H](C(=O)N[C@H](C)C2(C)CC2)[C@H]2CC[C@@H]1/C2=C\CCC(F)(F)F [compound 966] |
| 347 | COc1ccc(C2=NOC3COCC23)cc1C(=O)N[C@H]1[C@@H](C(=O)NCc2cc(C)ccc2C(F)(F)F)[C@H]2CC[C@@H]1/C2=C\C1CC1 (stereo partly drawn) [compound 659] |
| 3 | COc1ccc(-c2cc(S(C)(=O)=O)ccc2F)cc1C(=O)N[C@H]1[C@@H](C(=O)Nc2ccc(F)c(C(F)(F)F)c2)[C@H]2CC[C@@H]1/C2=C\C1CC1 [compound 899] |
| 65.3 | COc1ccc(C2=NOC(C)(CO)C2)cc1C(=O)N[C@H]1[C@@H](C(=O)Nc2ccc(F)c(C(F)(F)F)c2)[C@H]2CC[C@@H]1C2=CC1CC1 (single isomer, unassigned) [compound 571] |
| 2.1 | COc1ccc(-c2cc([C@H](OC(=O)NC3CCC3)C(F)(F)F)ccc2F)cc1C(=O)N[C@H]1[C@@H](C(=O)N[C@H](C)C2(C)CC2)[C@H]2CC[C@@H]1/C2=C\C1CC(F)(F)C1 [compound 967] |
| 311 | CCC(NC(=O)[C@@H]1[C@H](NC(=O)c2cc(C3=NOC4COCC34)ccc2OC)[C@@H]2CC[C@H]1/C2=C/C1CC1)c1ccccc1C (single isomer, unassigned) [compound 656] |
| 3.5 | COc1ccc(C2=NOC3CC(CO)CC23)cc1C(=O)N[C@H]1[C@@H](C(=O)Nc2ccc(F)c(C(F)(F)F)c2)[C@H]2CC[C@@H]1/C2=C\c1cncs1 (stereo partly drawn) [compound 803] |
| 1.9 | COc1ccc(-c2cc(C(CC(F)(F)F)NC(=O)C3CCOCC3)ccc2F)cc1C(=O)N[C@H]1[C@@H](C(=O)Nc2ccc(F)c(C(F)(F)F)c2)[C@H]2CC[C@@H]1/C2=C\C1CCCC1 (stereo partly drawn) [compound 944] |
| 67.4 | COc1ccc(C2=NOC(C(C)(C)O)C2)cc1C(=O)N[C@H]1[C@@H](C(=O)Nc2ccc(F)c(C(F)(F)F)c2)[C@H]2CC[C@@H]1/C2=C\C1CC1 (single isomer, unassigned) [compound 573] |
| 31.5 | COc1ccc(C2=NOC3COCC23)cc1C(=O)N[C@H]1[C@@H](C(=O)NC(C)(C)C)[C@H]2CC[C@@H]1/C2=C\C1CC1 (stereo partly drawn) [compound 545] |
| 6.3 | COc1ccc(C2CC3CNS(=O)(=O)C32)cc1C(=O)N[C@H]1[C@@H](C(=O)Nc2ccc(F)c(C(F)(F)F)c2)[C@H]2CC[C@@H]1/C2=C\C1CC1 (single isomer, unassigned) [compound 733] |
| 5.5 | COc1ccc(-c2cc(C(C)CC(=O)O)ccc2F)cc1C(=O)N[C@H]1[C@@H](C(=O)Nc2ccc(F)c(C(F)(F)F)c2)[C@H]2CC[C@@H]1/C2=C\C1CC1 (stereo partly drawn) [compound 887] |
| 658 | COCCOC1(C2CC(c3ccc(OC)c(C(=O)N[C@H]4[C@@H](C(=O)Nc5ccc(F)c(C(F)(F)F)c5)[C@H]5CC[C@@H]4/C5=C\C4CC4)c3)=NO2)CC1 (single isomer, unassigned) [compound 687] |
| 350 | COc1ccc(C2=NOC(CC(C)(C)O)C2)cc1C(=O)N[C@H]1[C@@H](C(=O)NCC(C)(C)C)[C@H]2CC[C@@H]1/C2=C\C1CC1 (stereo partly drawn) [compound 660] |
| 37.6 | COc1ccc(C2=NOC(C(C)O)C2)cc1C(=O)N[C@H]1[C@@H](C(=O)Nc2ccc(F)c(C(F)(F)F)c2)[C@H]2CC[C@@H]1/C2=C\C1CC1 (single isomer, unassigned) [compound 554] |

The next lines start with the compound.

| Compound | EC50 [nM] |
| --- | --- |
| COc1ccc(C2=NOC3CC(CO)CC23)cc1C(=O)N[C@@H]1C2CCC(/C2=C/C2CC2)[C@@H]1C(=O)Nc1ccc(F)c(C(F)(F)F)c1 (single isomer, unassigned) [compound 431] | 250 |
| COc1ccc(-c2cc(C(F)(F)F)ccc2F)cc1C(=O)N[C@@H]1C2CCC(/C2=C/C2CC2)[C@@H]1C(=O)Nc1ccc(F)c(C(F)(F)F)c1 (stereo partly drawn) [compound 286] | 5 |
| COc1ccc(C2=NOC3COCC23)cc1C(=O)N[C@@H]1C2CCC(/C2=C/C2CC2)[C@@H]1C(=O)Nc1ccc(F)c(C(F)(F)F)c1 (stereo partly drawn) [compound 418] | 170 |
| COc1ccc(C23COC(C(=O)O)(C2)C3)cc1C(=O)N[C@H]1[C@@H](C(=O)Nc2ccc(F)c(C(F)(F)F)c2)[C@H]2CC[C@@H]1/C2=C\C(F)(F)F [Example 724, 4-(3-(((1R,2R,3S,4R,Z)-3-((4-fluoro-3-(trifluoromethyl)phenyl)carbamoyl)-7-(2,2,2-trifluoroethylidene)bicyclo[2.2.1]heptan-2-yl)carbamoyl)-4-methoxyphenyl)-2-oxabicyclo[2.1.1]hexane-1-carboxylic acid] | 5000 |
| COc1ccc(Cl)cc1C(=O)N[C@@H]1C2CCC(C2=C(C)C)[C@@H]1C(=O)Nc1ccc(F)c(C(F)(F)F)c1 (stereo partly drawn) [compound 109] | 390 |
| COc1ccc(-c2cc(C(=O)O)ccc2F)cc1C(=O)N[C@@H]1C2CCC(/C2=C/C2CC2)[C@@H]1C(=O)NC1CCOCC1 (stereo partly drawn) [compound 204] | 3200 |
| COc1ccc(C2=NOC3CS(=O)(=O)CC23)cc1C(=O)N[C@@H]1C2CCC(/C2=C/C2CC2)[C@@H]1C(=O)Nc1ccc(F)c(C(F)(F)F)c1 (mixture of isomers) [Example 442, (1R,2S,3R,4R,Z)-7-(cyclopropylmethylene)-3-(5-(5,5-dioxido-3a,4,6,6a-tetrahydrothieno[3,4-d]isoxazol-3-yl)-2-methoxybenzamido)-N-(4-fluoro-3-(trifluoromethyl)phenyl)bicyclo[2.2.1]heptane-2-carboxamide] | 25 |
| COc1c(I)cc(I)cc1C(=O)N[C@@H]1C2CCC(/C2=C/c2ccccc2)[C@@H]1C(=O)Nc1ccc(F)c(C(F)(F)F)c1 (stereo partly drawn) [compound 132] | 220 |
| CNC(=O)/C=C1\C2CCC1[C@H](C(=O)Nc1ccc(F)c(C(F)(F)F)c1)[C@@H]2NC(=O)c1cc(F)c(F)cc1OC (stereo partly drawn) [compound 73] | 2400 |
| COc1ccc(C2=NOC3CS(=O)(=O)CC23)cc1C(=O)N[C@@H]1C2CCC(/C2=C/C2CC2)[C@@H]1C(=O)Nc1ccc(F)c(C(F)(F)F)c1 (single isomer, unassigned) [compound 444] | 410 |
| COc1cc(F)c(F)cc1C(=O)N[C@@H]1C2CCC(/C2=C/C(C)(C)O)[C@@H]1C(=O)Nc1ccc(F)c(C(F)(F)F)c1 (stereo partly drawn) [Example 65] | 2000 |
| COc1ccc(-c2cc(C(=O)O)ccc2F)cc1C(=O)N[C@@H]1C2CCC(/C2=C/C2CC2)[C@@H]1C(=O)Nc1cccc(-c2csnn2)c1 (stereo partly drawn) [compound 271] | 664 |
| COc1cc(F)c(F)cc1C(=O)N[C@@H]1C2CCC(/C2=C/C2=CCCCC2)[C@@H]1C(=O)Nc1ccc(F)c(C(F)(F)F)c1 (stereo partly drawn) [compound 35] | 30 |
| COc1ccccc1/C=C1\C2CCC1[C@H](C(=O)Nc1ccc(F)c(C(F)(F)F)c1)[C@@H]2NC(=O)c1cc(F)c(F)cc1OC (stereo partly drawn) [compound 23] | 1400 |
| COc1ccc(-c2cccc(OC(F)(F)F)c2)cc1C(=O)N[C@@H]1C2CCC(/C2=C/C2CC2)[C@@H]1C(=O)Nc1ccc(F)c(C(F)(F)F)c1 (stereo partly drawn) [compound 281] | 15 |
| COc1ccc(C2=NOC(CO)C2)cc1C(=O)N[C@@H]1C2CCC(/C2=C/C2CCC2)[C@@H]1C(=O)Nc1ccc(F)c(C(F)(F)F)c1 (single isomer, unassigned) [Example 379] | 26 |

same assay, conditions: cAMP hRXFP1 HEK293 Assay EC50, HEK293 cells stably expressing human RXFP1, 30 min at room temperature

| Compound | EC50 [nM] |
| --- | --- |
| COc1cc(F)c(F)cc1C(=O)N[C@@H]1C2CCC(/C2=C2\C=Cc3ccccc32)[C@@H]1C(=O)Nc1ccc(F)c(C(F)(F)F)c1 (stereo partly drawn) [Example 33] | 310 |
